In patent US20210353706A1, “INHIBITION OF ENDOGENOUS REVERSE TRANSCRIPTASE AND TARGETING OF CELLS FOR PROPHYLAXIS AND THERAPY OF CANCER AND AGING” (Health Research, Inc., priority 2017, published 2021):

Assays:
HeLa cells = assay: Clonogenicity of HeLa cells; format: cell-based; details: indicated concentrations of stavudine
LINE1 elements = assay: LINE1 retrotransposition assay (neo-resistant colonies after reporter plasmid transfection); format: cell-based; details: HeLa cells transfected with reporter plasmid
Method: FIG. 2 depicts a work-flow for a LINE1 retrotransposition assay as described in Moran et al. Cell 1996 87(5):917-27 (shown in box to the left).
Retrotransposition assay was performed according to Moran et al. Cell. 1996 87(5):917-27 (scheme shown to the left). HeLa cells were transfected with the reporter plasmid; appearance of neo-resistant colonies is indicative of retrotransposition events. […] It is accordingly expected that other RT inhibitors will have similar utility.

[1] = test system: colorectal cancer cells HCT116; assay: Acquisition of PALA-resistant colonies (CAD gene amplification); format: cell-based, human; details: for number of PALA resistant colonies: HCT116 grown in presence of indicated non-toxic concentrations of RT inhibitor
Excerpt: Gene amplification can be assessed by measuring the frequency of occurrence of cell variants resistant to N-phosphonoacetyl-L-aspartate (PALA), a small molecule inhibitor of aspartate transcarbamylase of CAD protein essential for UMP biosynthesis. In human cells, PALA resistance is associated almost solely with CAD overexpression due to amplification of the CAD gene. Therefore, this can serve as a quantitative indicator of gene amplification. Usually undetectable in normal cells, gene amplification frequency can be as high as 10-5 in tumor cells. The finding that p53 inactivation and DNA demethylation by decitabine both greatly increase the frequency of gene amplification support the possibility of involvement of retroelements (which are inhibited at the epigenetic level by p53 and DNA methylation) in this process.
Right panel illustrates the data shown in the graph as images of tissue culture plates treated and untreated with RT inhibitors in the presence and in the absence of PALA. Sensitivity of HCT116 cells to RT inhibitors alone were determined using quantitation of adherent cells following 72 hours of incubation in the presence of a range of concentrations of RT inhibitors (curves in the graph with the scale of cell viability shown on the right).

[2] = test system: Th-MYCN transgenic mice (spontaneous neuroblastomas); assay: Tumor relapse after chemotherapy in mouse spontaneous neuroblastoma model; format: in vivo
Excerpt: In particular, 100% of Th-MYCN transgenic mice (strain 129X1/SvJ-Tg(TH-MYCN)41Waw/Nci) homozygous for MYCN transgene develop spontaneous neuroblastomas in their abdomens around 30 days of age. Mice carrying this transgene show many of the features of the human childhood disease including sensitivity to conventional treatments. Indicated treatments were started at the times of first appearance of palpable tumors.

In the case of `Cc1cn([C@H]2C=C[C@@H](CO)O2)c(=O)[nH]c1=O` [stavudine], the “effect on clonogenicity of HeLa cells” value (HeLa cells) is reported as “lack of effect”, the “concentrations at which stavudine is effective in inhibiting LINE1 retrotransposition” value (LINE1 elements) is reported as “above 5 mM” and the “number of PALA resistant colonies” value [1] is reported as “greatly decreased”. The “number of PALA resistant colonies” value ([1]; listed as STV) was “dramatically reduces”, the “frequency of gene amplification in vitro” value ([1]; tumor cells in vitro) was “greatly reduced” and the “antitumor effect of stavudine alone” value ([2]; 1.5 mg/ml in drinking water, no chemotherapy) was “no detectable antitumor effect”. For the same compound, the “extension of average tumor-free survival” value ([2]; continuous stavudine 1.5 mg/ml in drinking water with cyclophosphamide and topotecan) was “nearly two-fold” and the “proportion of disease free animals with no relapses detected within >100 days of observation” value ([2]; continuous stavudine with cyclophosphamide and topotecan) was “significantly increased”.
